For the first test, the system named is mPTP-active Daoy cell. The experiment in a line: Inhibitory effect on mPTP-active Daoy cell (Promega CellTiter-Glo, intracellular ATP). Type of test: cell-based, human. As to conditions: Homo sapiens, Daoy, Daoy cell transfected with empty virus vector without PPIF shRNA.
Usually IC50 stands for the concentration at which inhibition is half-maximal. On to `COc1ccc2c(c1Br)CN1CCc3cc4c(cc3C1=C2)OCO4` [AB36460], for which the 50% inhibitory concentration (IC50) is 2.71 µM.

The molecule `COc1ccc2c(c1OC)C(C)N1CCc3cc4c(cc3C1=C2CCCc1ccccc1)OCO4` (stereo not drawn) [AB35493] came in with a half-inhibitory concentration (IC50) of 3.33 µM.

In turn, `CCCCC1c2c(c(Br)cc(OC)c2OC)C=C2c3cc4c(cc3CCN21)OCO4` (stereo not drawn) [AB31873] showed an IC50 of 6.44 µM.

Turning to `CCCCC1=C2c3cc4c(cc3CCN2C(C(Cl)(Cl)Cl)c2c1ccc(OC)c2OC)OCO4` (stereo not drawn) [AB35502], the IC50 is 6.14 µM.

Turning to `[2H]C1c2c(ccc(OC)c2OCCC)C=C2c3cc4c(cc3CCN21)OCO4` (stereo not drawn) [AB36437], the IC50 stood at 1.37 µM.

As to `COc1ccc2c(c1OC)C(C(Cl)(Cl)Cl)N1CCc3cc4c(cc3C1=C2CCCc1ccccc1)OCCO4` (stereo not drawn) [AB35484], the midpoint of inhibition, the IC50, lay at 3.06 µM.

The molecule `COc1ccc2c(c1OCCCF)C(C(Cl)(Cl)Cl)N1CCc3cc4c(cc3C1=C2)OCO4` (stereo not drawn) [AB35478] yielded an IC50 of 3.78 µM.

The molecule `CCCOc1c(OC)ccc2c1C(C1CCCC1)N1CCc3cc4c(cc3C1=C2)OCO4` (stereo not drawn) [AB35512] came in with an IC50 of 4.27 µM.

Molecule `COc1ccc2c(c1OC)C(C(Cl)(Cl)Cl)N1CCc3cc4c(cc3C1=C2CCCCCCBr)OCO4` (stereo not drawn) [AB35501] came in with an IC50 of 4.98 µM.

As to `COc1ccc2c(c1OCCNC(=O)OC(C)(C)C)C(C)N1CCc3cc4c(cc3C1=C2)OCO4` (stereo not drawn) [AB35424], the concentration for half-maximal inhibition (IC50) was 13.8 µM.

In turn, `COc1ccc2c(c1OCCCCOc1ccccc1)C(C1CCCC1)N1CCc3cc4c(cc3C1=C2)OCO4` (stereo not drawn) [AB35454] yielded an IC50 of 2.96 µM.

Consider `COc1c(OCCCCl)ccc2c1C(C1CCCC1)N1CCc3cc4c(cc3C1=C2)OCO4` (stereo not drawn) [AB36474], for which the midpoint of inhibition, the IC50, lay at 4.26 µM.

With `COc1ccc2c(c1OCCCCCCCl)C(C)N1CCc3cc4c(cc3C1=C2)OCO4` (stereo not drawn) [AB31888], 5.46 µM corresponded to half-maximal inhibition (IC50).

`COc1ccc2c(c1OC)CN1CCc3cc4c(cc3C1=C2)OCO4` [AB36463] gave an IC50 of 1.95 µM.

Take `COc1ccc2c(c1OCCCCCCNC(=O)OC(C)(C)C)C(C(Cl)(Cl)Cl)N1CCc3cc4c(cc3C1=C2)OCO4` (stereo not drawn) [AB35407]: the IC50 worked out at 2.83 µM.

Turning to `CC1c2c(ccc3c2OCO3)C=C2c3cc4c(cc3CCN21)OCO4` (stereo not drawn) [AB35413], inhibition was half-maximal at 13.3 µM (IC50).

The molecule `CCC(CC)COc1c(OC)ccc2c1C(C(Cl)(Cl)Cl)N1CCc3cc4c(cc3C1=C2)OCO4` (stereo not drawn) [AB35521] yielded a half-maximal inhibitory concentration (IC50) of 2.4 µM.

Take `CCCC1=C2c3cc4c(cc3CCN2C(C2CCCC2)c2c1ccc1c2OCO1)OCO4` (stereo not drawn) [AB36432]: the IC50 was 4.32 µM.

With `C1=C2c3cc4c(cc3CCN2C(C2CCCC2)c2cc3c(cc21)OCO3)OCO4` (stereo not drawn) [AB35467], the IC50 came out at 16.1 µM.

For `COc1ccc2c(c1OC)C(C)N1CCc3cc4c(cc3C1=C2CCc1ccccc1)OCO4` (stereo not drawn) [AB35498], half-maximal inhibition (IC50) required 6.35 µM.

`COc1ccc2c(c1OC)C(c1ccncc1)N1CCc3cc4c(cc3C1=C2)OCO4` (stereo not drawn) [AB36488] displayed an IC50 of 27 µM.

As to `COc1ccc2c(c1OCCCCCCCl)C(C1CCCC1)N1CCc3cc4c(cc3C1=C2)OCO4` (stereo not drawn) [AB35440], it took 2.36 µM to reach half-maximal inhibition (IC50).

For the molecule `COc1ccc2c(c1OC)C(CC(C)=O)N1CCc3cc4c(cc3C1=C2)OCO4` (stereo not drawn) [AB36472], inhibition was half-maximal at 15.8 µM (IC50).

With `CCC1=C2c3cc4c(cc3CCN2C(C(Cl)(Cl)Cl)c2c1ccc1c2OCO1)OCO4` (stereo not drawn) [AB36426], it took 30.9 µM to reach half-maximal inhibition (IC50).

In the case of `COc1ccc2c(c1OCCCBr)C(C)N1CCc3cc4c(cc3C1=C2)OCO4` (stereo not drawn) [AB31887], half-maximal inhibition (IC50) required 6.47 µM.

As to `CCCOc1c(OC)ccc2c1C(C(Cl)(Cl)Cl)N1CCc3cc4c(cc3C1=C2)OCO4` (stereo not drawn) [AB35506], half-maximal inhibition (IC50) required 3.45 µM.

Consider `COc1ccc2c(c1OC(=O)CC13CC4CC(CC(C4)C1)C3)C(C1CCCC1)N1CCc3cc4c(cc3C1=C2)OCO4` (stereo not drawn) [AB35459], for which the half-inhibitory concentration (IC50) is 12.5 µM.

In another test the test system is mPTP-inactive Daoy cell. In words: Inhibitory effect on mPTP-inactive Daoy cell (PPIF shRNA; Promega CellTiter-Glo, intracellular ATP). Type of test: cell-based, human. The conditions noted are these: Homo sapiens, Daoy, Daoy cell transfected with virus vector carrying PPIF shRNA. From the text:
The activity of mitochondria permeability transition pore (mPTP) was regulated by the PPIF protein. […] PPIF protein activity was restricted by the expression level of PPIF protein in cell.
With `COc1ccc2c(c1Br)CN1CCc3cc4c(cc3C1=C2)OCO4` [AB36460], the IC50 turned out to be 1.27 µM.

In turn, `COc1ccc2c(c1OC)C(C)N1CCc3cc4c(cc3C1=C2CCCc1ccccc1)OCO4` (stereo not drawn) [AB35493] returned a 50% inhibitory concentration (IC50) of 1.02 µM.

`CCCCC1c2c(c(Br)cc(OC)c2OC)C=C2c3cc4c(cc3CCN21)OCO4` (stereo not drawn) [AB31873] registered a 50% inhibitory concentration (IC50) of 3.13 µM.

Turning to `CCCCC1=C2c3cc4c(cc3CCN2C(C(Cl)(Cl)Cl)c2c1ccc(OC)c2OC)OCO4` (stereo not drawn) [AB35502], half-maximal inhibition (IC50) required 2.97 µM.

`[2H]C1c2c(ccc(OC)c2OCCC)C=C2c3cc4c(cc3CCN21)OCO4` (stereo not drawn) [AB36437] gave an IC50 of 0.54 µM.

With `COc1ccc2c(c1OC)C(C(Cl)(Cl)Cl)N1CCc3cc4c(cc3C1=C2CCCc1ccccc1)OCCO4` (stereo not drawn) [AB35484], 0.97 µM corresponded to half-maximal inhibition (IC50).

The molecule `COc1ccc2c(c1OCCCF)C(C(Cl)(Cl)Cl)N1CCc3cc4c(cc3C1=C2)OCO4` (stereo not drawn) [AB35478] came in with an IC50 of 1.51 µM.

For `CCCOc1c(OC)ccc2c1C(C1CCCC1)N1CCc3cc4c(cc3C1=C2)OCO4` (stereo not drawn) [AB35512], the concentration for half-maximal inhibition (IC50) was found to be 1.57 µM.

`COc1ccc2c(c1OC)C(C(Cl)(Cl)Cl)N1CCc3cc4c(cc3C1=C2CCCCCCBr)OCO4` (stereo not drawn) [AB35501]: the half-inhibitory concentration (IC50) was found to be 1.91 µM.

In turn, `COc1ccc2c(c1OCCNC(=O)OC(C)(C)C)C(C)N1CCc3cc4c(cc3C1=C2)OCO4` (stereo not drawn) [AB35424] returned an IC50 of 6.18 µM.

As for `COc1ccc2c(c1OCCCCOc1ccccc1)C(C1CCCC1)N1CCc3cc4c(cc3C1=C2)OCO4` (stereo not drawn) [AB35454], the IC50 worked out at 1.28 µM.

As for `COc1c(OCCCCl)ccc2c1C(C1CCCC1)N1CCc3cc4c(cc3C1=C2)OCO4` (stereo not drawn) [AB36474], the IC50 came out at 1.39 µM.

`COc1ccc2c(c1OCCCCCCCl)C(C)N1CCc3cc4c(cc3C1=C2)OCO4` (stereo not drawn) [AB31888] gave a half-maximal inhibitory concentration (IC50) of 2.68 µM.

In turn, `COc1ccc2c(c1OC)CN1CCc3cc4c(cc3C1=C2)OCO4` [AB36463] returned a concentration for half-maximal inhibition (IC50) of 0.88 µM.

The molecule `COc1ccc2c(c1OCCCCCCNC(=O)OC(C)(C)C)C(C(Cl)(Cl)Cl)N1CCc3cc4c(cc3C1=C2)OCO4` (stereo not drawn) [AB35407] registered an IC50 of 1.34 µM.

As for `CC1c2c(ccc3c2OCO3)C=C2c3cc4c(cc3CCN21)OCO4` (stereo not drawn) [AB35413], 6.87 µM corresponded to half-maximal inhibition (IC50).

With `CCC(CC)COc1c(OC)ccc2c1C(C(Cl)(Cl)Cl)N1CCc3cc4c(cc3C1=C2)OCO4` (stereo not drawn) [AB35521], half-maximal inhibition (IC50) was put at 1.03 µM.

Regarding `CCCC1=C2c3cc4c(cc3CCN2C(C2CCCC2)c2c1ccc1c2OCO1)OCO4` (stereo not drawn) [AB36432], the 50% inhibitory concentration (IC50) turned out to be 1.88 µM.

Consider `C1=C2c3cc4c(cc3CCN2C(C2CCCC2)c2cc3c(cc21)OCO3)OCO4` (stereo not drawn) [AB35467], for which the IC50 amounted to 8.21 µM.

Turning to `COc1ccc2c(c1OC)C(C)N1CCc3cc4c(cc3C1=C2CCc1ccccc1)OCO4` (stereo not drawn) [AB35498], the half-maximal inhibitory concentration (IC50) came to 3.1 µM.

With `COc1ccc2c(c1OC)C(c1ccncc1)N1CCc3cc4c(cc3C1=C2)OCO4` (stereo not drawn) [AB36488], the half-maximal inhibitory concentration (IC50) stood at 26.9 µM.

Turning to `COc1ccc2c(c1OCCCCCCCl)C(C1CCCC1)N1CCc3cc4c(cc3C1=C2)OCO4` (stereo not drawn) [AB35440], the IC50 stood at 1.14 µM.

For the molecule `COc1ccc2c(c1OC)C(CC(C)=O)N1CCc3cc4c(cc3C1=C2)OCO4` (stereo not drawn) [AB36472], the IC50 came out at 15.9 µM.

`CCC1=C2c3cc4c(cc3CCN2C(C(Cl)(Cl)Cl)c2c1ccc1c2OCO1)OCO4` (stereo not drawn) [AB36426]: the 50% inhibitory concentration (IC50) came out at 35 µM.

Consider `COc1ccc2c(c1OCCCBr)C(C)N1CCc3cc4c(cc3C1=C2)OCO4` (stereo not drawn) [AB31887], for which the IC50 was 3.17 µM.

Take `CCCOc1c(OC)ccc2c1C(C(Cl)(Cl)Cl)N1CCc3cc4c(cc3C1=C2)OCO4` (stereo not drawn) [AB35506]: half-maximal inhibition (IC50) was put at 1.49 µM.

Turning to `COc1ccc2c(c1OC(=O)CC13CC4CC(CC(C4)C1)C3)C(C1CCCC1)N1CCc3cc4c(cc3C1=C2)OCO4` (stereo not drawn) [AB35459], it took 6.18 µM to reach half-maximal inhibition (IC50).

The values are drawn from patent US20250197389A1, “NITROGEN-CONTAINING HETEROCYCLIC COMPOUND” (SHANGHAI SHIJIANG BIOTECHNOLOGY CO., LTD, priority 2022, published 2025).
